Laboratory results taken from patent US10538555B2, “Macrocyclic inhibitors of the PD-1/PD-L1 and CD80(B7-1)/PD-L1 protein/protein interactions” (BRISTOL-MYERS SQUIBB COMPANY, priority 2014, dated 2020).
*1 amine or outer side, *2 acyl side, *3 side chain or, on linkers, in order; H or OH if unused. Where a SMILES comes first, the peptide text is derived from it. Bridges are numbered along the chain shown (N, C = ends). [ ]: non-standard residue; d: D form. ξ: configuration not given here. Phe(3,4,5-F3) = N[C@@H](Cc1cc(F)c(F)c(F)c1)C(=O)O; Phe(3,4-F2) = N[C@@H](Cc1ccc(F)c(F)c1)C(=O)O; NMePhe(4-F) = CN[C@@H](Cc1ccc(F)cc1)C(=O)O; Phe(4-F) = N[C@@H](Cc1ccc(F)cc1)C(=O)O; Pro(4R-NH2) = N[C@H]1CN[C@H](C(=O)O)C1; d(cisHyp) = O=C(O)[C@H]1C[C@@H](O)CN1; Bta = N[C@@H](Cc1csc2ccccc12)C(=O)O; NMeY = CN[C@@H](Cc1ccc(O)cc1)C(=O)O; NMeIle(3ξ) = CCC(C)[C@H](NC)C(=O)O; Hyp = O=C(O)[C@@H]1C[C@@H](O)CN1; NMeF = CN[C@@H](Cc1ccccc1)C(=O)O; X1 = O=C([C@H]1COCCN1[*:1])[*:2]; NMehSer = CN[C@@H](CCO)C(=O)O; NMeNle = CCCC[C@H](NC)C(=O)O; Pip = O=C(O)[C@@H]1CCCCN1; dPip = O=C(O)[C@H]1CCCCN1; hSer = N[C@@H](CCO)C(=O)O; NMeA = CN[C@@H](C)C(=O)O; Orn = NCCC[C@H](N)C(=O)O; dThz = O=C(O)[C@H]1CSCN1; Dab = NCC[C@H](N)C(=O)O; Dap = NC[C@H](N)C(=O)O

Target: T1, Human PD-L1/PD-1 (Homo sapiens, UniProt Q9NZQ7)
T1 construct: TVMV protease cleavage site (C); made in house; host or cells: HEK293T cells
Experiment: HTRF Human PD-L1/PD-1 binding assay (PD-1-Ig/PD-L1-His)
Conditions: PD-L1-His 10 nM, PD-1-Ig 20 nM; class symbol; read-out: HTRF Human PD-L1/PD-1 Binding Assay IC50 Range
In short: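 Inhibitors were preincubated 15 min with human PD-L1(18-239)-His (10 nM final), then PD-1(25-167)-Ig (20 nM final) was added for 15 min in dPBS/0.1% BSA/0.05% Tween-20. Eu-cryptate anti-Ig (1 nM) and APC anti-His (20 nM) were added; 665/620 nm ratio read after 30 min.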

T1 sequence (Q9NZQ7 with tags, fused parts or gaps): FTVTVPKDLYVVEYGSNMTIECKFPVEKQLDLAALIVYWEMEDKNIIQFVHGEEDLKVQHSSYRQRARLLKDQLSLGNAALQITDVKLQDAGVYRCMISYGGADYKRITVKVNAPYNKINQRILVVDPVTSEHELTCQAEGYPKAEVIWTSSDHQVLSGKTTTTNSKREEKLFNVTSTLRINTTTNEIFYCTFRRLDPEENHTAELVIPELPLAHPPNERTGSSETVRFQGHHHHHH

Structure (SMILES)	IC50 [nM]
CCCC[C@H]1C(=O)N2CCC[C@@H]2C(=O)N[C@@H](CC(=O)O)C(=O)N[C@@H](C(C)C)C(=O)N(C)[C@@H](Cc2ccccc2)C(=O)N[C@@H](CCC(=O)O)C(=O)N2CCOC[C@@H]2C(=O)N[C@@H](Cc2c[nH]c3ccccc23)C(=O)N[C@@H](Cc2ccc(O)cc2)C(=O)N[C@@H](CN)C(=O)N[C@H](C(=O)NCC(N)=O)CSCC(=O)N[C@@H](Cc2cc(F)c(F)c(F)c2)C(=O)N(C)[C@@H](Cc2ccc(O)cc2)C(=O)N1C [Example 10617] ({CH2CO}-[Phe(3,4,5-F3)][NMeY][NMeNle][dP]DV[NMeF]E[X1]WY[Dap]CG-NH2; thioether N-13)	10 to 99.9
CCCC[C@H]1C(=O)N(C)[C@@H](CCCC)C(=O)N[C@@H](CCC(=O)O)C(=O)N[C@H](C(=O)NCC(N)=O)CSCC(=O)N[C@@H](Cc2ccc(O)cc2)C(=O)N(C)[C@@H](C)C(=O)N[C@@H](CC(N)=O)C(=O)N2CCC[C@H]2C(=O)N[C@@H](Cc2c[nH]cn2)C(=O)N[C@@H](CCC(=O)O)C(=O)N2C[C@H](O)C[C@H]2C(=O)N[C@@H](Cc2c[nH]c3ccccc23)C(=O)N[C@@H](CCN)C(=O)N[C@@H](Cc2c[nH]c3ccccc23)C(=O)N1C [Example 5190] ({CH2CO}-Y[NMeA]NPHE[Hyp]W[Dab]W[NMeNle][NMeNle]ECG-NH2; thioether N-14)	1 to 9.9
CCCC[C@H]1C(=O)N2C[C@H](O)C[C@@H]2C(=O)N[C@@H](CC(=O)O)C(=O)N[C@@H](C(C)C)C(=O)N(C)[C@@H](Cc2ccccc2)C(=O)N[C@@H](CC(=O)O)C(=O)N2C[C@H](O)C[C@@H]2C(=O)N[C@@H](Cc2c[nH]c3ccccc23)C(=O)N[C@@H](Cc2ccc(O)cc2)C(=O)N[C@@H](CC(C)C)C(=O)N[C@H](C(=O)NCC(N)=O)CSCC(=O)N[C@@H](Cc2ccc(F)c(F)c2)C(=O)N(C)[C@@H](Cc2ccccc2)C(=O)N1C [Example 9289] ({CH2CO}-[Phe(3,4-F2)][NMeF][NMeNle][d(cisHyp)]DV[NMeF]D[d(cisHyp)]WYLCG-NH2; thioether N-13)	1 to 9.9
CCCC[C@H]1C(=O)N(C)[C@@H](CCCC)C(=O)N[C@@H](C)C(=O)N[C@H](C(=O)NCC(N)=O)CSCC(=O)N[C@@H](Cc2ccc(O)cc2)C(=O)N2CCCC[C@H]2C(=O)N[C@@H](CC(=O)O)C(=O)N2CCC[C@H]2C(=O)N[C@@H](CN)C(=O)N[C@@H](CCC(=O)O)C(=O)N2C[C@H](O)C[C@H]2C(=O)N[C@@H](Cc2c[nH]c3ccccc23)C(=O)N[C@@H](CO)C(=O)N[C@@H](Cc2csc3ccccc23)C(=O)N1C [Example 1510] ({CH2CO}-Y[Pip]DP[Dap]E[Hyp]WS[Bta][NMeNle][NMeNle]ACG-NH2; thioether N-14)	1 to 9.9
CCCC[C@H]1C(=O)N2CCC[C@@H]2C(=O)N[C@@H](CC(=O)O)C(=O)N[C@@H](C(C)C)C(=O)N(C)[C@@H](C(C)CC)C(=O)N[C@@H](CCC(N)=O)C(=O)N2CCCC[C@@H]2C(=O)N[C@@H](Cc2c[nH]c3ccccc23)C(=O)N[C@@H](Cc2ccc(O)cc2)C(=O)N[C@@H](CCCN)C(=O)N[C@H](C(=O)NCC(N)=O)CSCC(=O)N[C@@H](Cc2ccc(F)cc2)C(=O)N(C)[C@@H](Cc2ccccc2)C(=O)N1C (stereo partly drawn) [Example 9263] ({CH2CO}-[Phe(4-F)][NMeF][NMeNle][dP]DV[NMeIle(3ξ)]Q[dPip]WY[Orn]CG-NH2; thioether N-13)	1000 to 10000
CCCC[C@H]1C(=O)N2C[C@H](O)C[C@@H]2C(=O)N[C@@H](CC(=O)O)C(=O)N[C@@H](C(C)C)C(=O)N(C)[C@@H](Cc2ccccc2)C(=O)N[C@@H](CCC(N)=O)C(=O)N2C[C@H](O)C[C@@H]2C(=O)N[C@@H](Cc2c[nH]c3ccccc23)C(=O)N[C@@H](Cc2ccc(O)cc2)C(=O)N[C@@H](CCCN)C(=O)N[C@H](C(=O)NCC(N)=O)CSCC(=O)N[C@@H](Cc2ccc(F)c(F)c2)C(=O)N(C)[C@@H](Cc2ccccc2)C(=O)N1C [Example 9302] ({CH2CO}-[Phe(3,4-F2)][NMeF][NMeNle][d(cisHyp)]DV[NMeF]Q[d(cisHyp)]WY[Orn]CG-NH2; thioether N-13)	1 to 9.9
CCCC[C@H]1C(=O)N2CCC[C@@H]2C(=O)N[C@@H](CO)C(=O)N[C@@H](C(C)C)C(=O)N(C)[C@@H](Cc2ccccc2)C(=O)N[C@@H](CCC(=O)O)C(=O)N2CCCC[C@@H]2C(=O)N[C@@H](Cc2c[nH]c3ccccc23)C(=O)N[C@@H](Cc2ccc(O)cc2)C(=O)N[C@@H](CC(C)C)C(=O)N[C@H](C(=O)NCC(N)=O)CSCC(=O)N[C@@H](Cc2cc(F)c(F)c(F)c2)C(=O)N(C)[C@@H](Cc2ccc(F)cc2)C(=O)N1C [Example 10587] ({CH2CO}-[Phe(3,4,5-F3)][NMePhe(4-F)][NMeNle][dP]SV[NMeF]E[dPip]WYLCG-NH2; thioether N-13)	1 to 9.9
CCCC[C@H]1C(=O)N(C)[C@@H](CCCC)C(=O)N[C@@H](CCCN)C(=O)N[C@H](C(=O)NCC(N)=O)CSCC(=O)N[C@@H](Cc2ccc(OC)cc2)C(=O)N(C)[C@@H](C)C(=O)N[C@@H](CC(N)=O)C(=O)N2CCC[C@H]2C(=O)N[C@@H](Cc2cnc[nH]2)C(=O)N[C@@H](CCCCN)C(=O)N2C[C@H](O)C[C@H]2C(=O)N[C@@H](Cc2c[nH]c3ccccc23)C(=O)N[C@@H](CCN)C(=O)N[C@@H](Cc2c[nH]c3ccccc23)C(=O)N1C [Example 7093] ({CH2CO}-Y(Me)[NMeA]NPHK[Hyp]W[Dab]W[NMeNle][NMeNle][Orn]CG-NH2; thioether N-14)	1 to 9.9
CCCC[C@H]1C(=O)N[C@@H](CC(C)C)C(=O)N[C@H](C(=O)NCC(N)=O)CSCC(=O)N[C@@H](Cc2ccc(O)cc2)C(=O)N(C)[C@@H](C)C(=O)N[C@@H](CC(N)=O)C(=O)N2CCC[C@H]2C(=O)N[C@@H](Cc2c[nH]cn2)C(=O)N[C@@H](CCC(N)=O)C(=O)N2C[C@H](O)C[C@H]2C(=O)N[C@@H](Cc2c[nH]c3ccccc23)C(=O)NCC(=O)N[C@@H](Cc2c[nH]c3ccccc23)C(=O)N(C)[C@@H](CCOC)C(=O)N1C [Example 10137] ({CH2CO}-Y[NMeA]NPHQ[Hyp]WGW[NMehSer](Me)[NMeNle]LCG-NH2; thioether N-14)	10 to 99.9
CCCC[C@H]1C(=O)N2C[C@H](O)C[C@@H]2C(=O)N[C@@H](CC(=O)O)C(=O)N[C@@H](C(C)C)C(=O)N(C)[C@@H](Cc2ccccc2)C(=O)N[C@@H](CCC(=O)O)C(=O)N2C[C@H](O)C[C@@H]2C(=O)N[C@@H](Cc2c[nH]c3ccccc23)C(=O)N[C@@H](Cc2ccc(O)cc2)C(=O)N[C@@H](CN)C(=O)N[C@H](C(=O)NCC(N)=O)CSCC(=O)N[C@@H](Cc2cc(F)c(F)c(F)c2)C(=O)N(C)[C@@H](Cc2ccccc2)C(=O)N1C [Example 9334] ({CH2CO}-[Phe(3,4,5-F3)][NMeF][NMeNle][d(cisHyp)]DV[NMeF]E[d(cisHyp)]WY[Dap]CG-NH2; thioether N-13)	10 to 99.9
CCCC[C@H]1C(=O)N2CCC[C@@H]2C(=O)N[C@@H](CC(=O)O)C(=O)N[C@@H](C(C)C)C(=O)N(C)[C@@H](Cc2ccccc2)C(=O)N[C@@H](Cc2ccc(O)cc2)C(=O)N2CCC[C@@H]2C(=O)N[C@@H](Cc2c[nH]c3ccccc23)C(=O)N[C@@H](Cc2ccc(O)cc2)C(=O)N[C@@H](CCCN)C(=O)N[C@H](C(=O)NCC(N)=O)CSCC(=O)N[C@@H](Cc2cc(F)c(F)c(F)c2)C(=O)N(C)[C@@H](Cc2ccccc2)C(=O)N1C [Example 10098] ({CH2CO}-[Phe(3,4,5-F3)][NMeF][NMeNle][dP]DV[NMeF]Y[dP]WY[Orn]CG-NH2; thioether N-13)	1 to 9.9
CCCC[C@H]1C(=O)N2CCOC[C@@H]2C(=O)N[C@@H](CC(=O)O)C(=O)N[C@@H](C(C)C)C(=O)N(C)[C@@H](Cc2ccccc2)C(=O)N[C@@H](CCC(=O)O)C(=O)N2CCOC[C@@H]2C(=O)N[C@@H](Cc2c[nH]c3ccccc23)C(=O)N[C@@H](Cc2ccc(O)cc2)C(=O)N[C@@H](CC(C)C)C(=O)N[C@H](C(=O)NCC(N)=O)CSCC(=O)N[C@@H](Cc2ccc(F)c(F)c2)C(=O)N(C)[C@@H](Cc2ccccc2)C(=O)N1C [Example 9281] ({CH2CO}-[Phe(3,4-F2)][NMeF][NMeNle][X1]DV[NMeF]E[X1]WYLCG-NH2; thioether N-13)	1 to 9.9
CCCC[C@H]1C(=O)N2C[C@H](O)C[C@@H]2C(=O)N2C[C@H](N)C[C@H]2C(=O)N[C@@H](C(C)C)C(=O)N(C)[C@@H](Cc2ccccc2)C(=O)N[C@@H](CCC(=O)O)C(=O)N2CCCC[C@@H]2C(=O)N[C@@H](Cc2c[nH]c3ccccc23)C(=O)N[C@@H](Cc2ccc(O)cc2)C(=O)N[C@@H](CC(C)C)C(=O)N[C@H](C(=O)NCC(N)=O)CSCC(=O)N[C@@H](Cc2cc(F)c(F)c(F)c2)C(=O)N(C)[C@@H](Cc2ccccc2)C(=O)N1C [Example 3227] ({CH2CO}-[Phe(3,4,5-F3)][NMeF][NMeNle][d(cisHyp)][Pro(4R-NH2)]V[NMeF]E[dPip]WYLCG-NH2; thioether N-13)	1 to 9.9
CCCC[C@H]1C(=O)N(C)[C@@H](CCOC)C(=O)N[C@@H](CCC(=O)O)C(=O)N[C@H](C(=O)NCC(N)=O)CSCC(=O)N[C@@H](Cc2ccc(O)cc2)C(=O)N(C)[C@@H](C)C(=O)N[C@@H](CC(=O)O)C(=O)N2CCC[C@H]2C(=O)N[C@@H](Cc2c[nH]cn2)C(=O)N[C@@H](CCC(N)=O)C(=O)N2C[C@H](O)C[C@H]2C(=O)N[C@@H](Cc2c[nH]c3ccccc23)C(=O)N[C@@H](CO)C(=O)N[C@@H](Cc2c[nH]c3ccccc23)C(=O)N1C [Example 10142] ({CH2CO}-Y[NMeA]DPHQ[Hyp]WSW[NMeNle][NMehSer](Me)ECG-NH2; thioether N-14)	10 to 99.9
CCCC[C@H]1C(=O)N2C[C@H](O)C[C@@H]2C(=O)N[C@@H](CC(=O)O)C(=O)N[C@@H](C(C)C)C(=O)N(C)[C@@H](Cc2ccccc2)C(=O)N[C@@H](CC(=O)O)C(=O)N2CSC[C@@H]2C(=O)N[C@@H](Cc2c[nH]c3ccccc23)C(=O)N[C@@H](Cc2ccc(O)cc2)C(=O)N[C@@H](CCO)C(=O)N[C@H](C(=O)NCC(N)=O)CSCC(=O)N[C@@H](Cc2cc(F)c(F)c(F)c2)C(=O)N(C)[C@@H](Cc2ccccc2)C(=O)N1C [Example 10151] ({CH2CO}-[Phe(3,4,5-F3)][NMeF][NMeNle][d(cisHyp)]DV[NMeF]D[dThz]WY[hSer]CG-NH2; thioether N-13)	1 to 9.9
